Source: patent publication USRE39148E1, “Potentiation of the Microbicide 2-(Thiocyanomethylthio)benzothiazole using an n-alkyl heterocyclic compound” (Buckman Laboratories International, Inc., priority 1995, dated 2006)

Experiments:
[1] = system: Sphaerotilus natans, ATCC 15291; assay: 18 Hour Stokes Broth Test; type: cell-based; conditions: alone
Procedure: The bactericidal effects of the combined use of TCMTB and N-alkyl heterocyclic compounds against bacteria were measured using an 18 Hour Stokes Broth Test. Combinations of TCMTB and N-dodecyl morpho line (DDM) and of TCMTB and N-dodecyl imidazole (DDI) were tested against the bacteria Sphaerotilus natans, ATCC 15291. In this test, compound A was Busan® 1030 product, a 30% TCMTB formulation, and compound B was either DDM (99%) or DDI (99%). The Busan® […] product is available from Buckman Laboratories, Memphis, Tenn. The Stokes broth substrate used to evaluate effectiveness of microbicidal compositions against Sphaerotilus natans was prepared by adding the following to one liter of water: [table] The broth was adjusted to pH 7.0 with sodium hydroxide. Forty gram portions were then added to 180 mL Pyrex milk dilution bottles fitted with […] rubber stoppers and then sterilized. Each of the following substances was then added to each bottle in the order listed. • 1. Sterile distilled water as required in each individual case to bring the total weight of the contents of each bottle to 50 g after all subsequent additions specified below (including inoculation with the aqueous suspension of test organism) have been made. • 2. Solution of toxicant or control agent to be evaluated in such individual volumes as to give the concentration desired in parts per million by weight. • 3. One mL of a 24-hour old S. natans culture grown in Stokes broth. After the inoculant suspension of the test organism was added to the bottles they were incubated at 28° C. for 18 hours. After this incubation, a 1 mL of sample was withdrawn from each bottle, diluted, plated on Stokes agar, and incubated for 72-96 hr. at 28-30° C. Stokes agar was prepared like the broth with 12.5 g agar added per liter. The number of colonies on each plate was determined and converted to the count per milliliter of substrate. […] A percentage kill of 90 percent or higher represents an extremely useful bactericidal composition. […] Others may be calculated from the data presented.

[2] = system: Desulfovibrio desulfuricans, ATCC 7757; assay: 28 Day API Test; type: cell-based; parameters: key: 0=no growth; 4=heavy growth; conditions: alone
Procedure: The bactericidal effects of the combined use of TCMTB and N-alkyl heterocyclic compounds against bacteria were measured using an 28 Day API Test. Combinations of TCMTB (compound A) and N-dodecyl morpholine (DDM, compound B) and of TCMTB (compound A) and N-dodecyl imidazole (DDI, compound B) were tested against the bateria Desulfovibrio desulfuricans, ATCC 7757. Busan® 1030 product, a 30% TCMTB formulation, DDM (99%), and DDI (99%) were used in this testing. The Busan® […] product is available from Buckman Laboratories, Memphis Tenn. The medium used was a modified API Broth having the following composition: […] The compounds were dissolved in 1.0 L of deionized water to form the medium. The pH of the medium was adjusted to a final pH of 6.9 with 1 N sodium hydroxide prior to sterilization. The medium was sterilized at 121° C. for 20 minutes and then allowed to cool to room temperature. The medium is then inoculated by adding 10 ml per liter of a 24-hr. broth culture of Desulfovibrio desulfuricans. From stock solutions of the chemicals to be tested, sufficient amounts of the compounds were added to 1 oz. glass bottles so that when a bottle was completely filled, the desired concentration of the chemical was present. The bottles were then completely filled with the inoculated API broth (10 mL innoculum per liter medium) in a manner such as to exclude all air and provide an anaerobic state. The bottles were capped tightly and inverted gently to mix the contents and, at the same time, to make sure no air bubbles were present. Incubation was carried out at 37° C. for 28 days. Growth was indicated by blackening of the culture medium, whereas those bottles having sufficient chemical to inhibit growth would remain clear. Observations of growth were made at the end of 7 days, 14 days, 21 days and 28 days. […] The minimum inhibitory concentration (MIC) was defined as the lowest concentration tested which gave no growth in the bottle (clear liquid). […] Others may be calculated from the data presented.

CCCCCCCCCCCCn1ccnc1 [Dodecyl Imidazole, N-dodecyl imidazole]
6.80 × 10^5 CFU/mL: CFU/mL ([1]; Table 3, 2 ppm)
<10^3 CFU/mL: CFU/mL ([1]; Table 3, 5 ppm) | CFU/mL ([1]; Table 3, 10 ppm) | CFU/mL ([1]; Table 3, 20 ppm) | CFU/mL ([1]; Table 3, 50 ppm) | CFU/mL ([1]; Table 3, 100 ppm)
86.5%: % Kill ([1]; Table 3, 2 ppm)
1.26 × 10^6 CFU/mL: CFU/mL ([1]; Table 3, 1 ppm)
75.1%: % Kill ([1]; Table 3, 1 ppm)

CCCCCCCCCCCCN1CCOCC1 [Dodecyl Morpholine, N-dodecyl morpholine]
1.24 × 10^6 CFU/mL: CFU/mL ([1]; Table 2, 2 ppm)
1.58 × 10^6 CFU/mL: CFU/mL ([1]; Table 2, 1 ppm)
<10^3 CFU/mL: CFU/mL ([1]; Table 2, 10 ppm) | CFU/mL ([1]; Table 2, 20 ppm)
0: growth, Day 7 ([2]; Table 4, 80 ppm) | growth, Day 7 ([2]; Table 4, 160 ppm) | growth, Day 14 ([2]; Table 4, 160 ppm) | growth, Day 7 ([2]; Table 4, 320 ppm) | growth, Day 14 ([2]; Table 4, 320 ppm) | growth, Day 21 ([2]; Table 4, 320 ppm) | growth, Day 28 ([2]; Table 4, 320 ppm) | growth, Day 7 ([2]; Table 5, 16 ppm) | growth, Day 14 ([2]; Table 5, 16 ppm) | growth, Day 21 ([2]; Table 5, 16 ppm) | growth, Day 28 ([2]; Table 5, 16 ppm) | growth, Day 7 ([2]; Table 5, 32 ppm) | growth, Day 14 ([2]; Table 5, 32 ppm) | growth, Day 28 ([2]; Table 5, 32 ppm)
67.4%: % Kill ([1]; Table 2, 2 ppm)
1: growth, Day 14 ([2]; Table 4, 80 ppm)
77.6%: % Kill ([1]; Table 2, 5 ppm)
2: growth, Day 7 ([2]; Table 4, 40 ppm) | growth, Day 21 ([2]; Table 4, 160 ppm) | growth, Day 7 ([2]; Table 5, 8 ppm)
4: growth, Day 7 ([2]; Table 4, 10 ppm) | growth, Day 14 ([2]; Table 4, 10 ppm) | growth, Day 21 ([2]; Table 4, 10 ppm) | growth, Day 28 ([2]; Table 4, 10 ppm) | growth, Day 7 ([2]; Table 4, 20 ppm) | growth, Day 14 ([2]; Table 4, 20 ppm) | growth, Day 21 ([2]; Table 4, 20 ppm) | growth, Day 28 ([2]; Table 4, 20 ppm) | growth, Day 21 ([2]; Table 4, 40 ppm) | growth, Day 28 ([2]; Table 4, 40 ppm) | growth, Day 28 ([2]; Table 4, 80 ppm) | growth, Day 7 ([2]; Table 5, 1 ppm) | growth, Day 14 ([2]; Table 5, 1 ppm) | growth, Day 21 ([2]; Table 5, 1 ppm) | growth, Day 28 ([2]; Table 5, 1 ppm) | growth, Day 7 ([2]; Table 5, 2 ppm) | growth, Day 14 ([2]; Table 5, 2 ppm) | growth, Day 21 ([2]; Table 5, 2 ppm) | growth, Day 28 ([2]; Table 5, 2 ppm) | growth, Day 7 ([2]; Table 5, 4 ppm) | growth, Day 14 ([2]; Table 5, 4 ppm) | growth, Day 21 ([2]; Table 5, 4 ppm) | growth, Day 28 ([2]; Table 5, 4 ppm) | growth, Day 14 ([2]; Table 5, 8 ppm) | growth, Day 28 ([2]; Table 5, 8 ppm)
58.4%: % Kill ([1]; Table 2, 1 ppm)
3: growth, Day 14 ([2]; Table 4, 40 ppm) | growth, Day 21 ([2]; Table 4, 80 ppm) | growth, Day 28 ([2]; Table 4, 160 ppm)
8.51 × 10^5 CFU/mL: CFU/mL ([1]; Table 2, 5 ppm)
